According to PMC10820444, “1,2,4-Triazole-Tethered Indolinones as New Cancer-Fighting Small Molecules Targeting VEGFR-2: Synthesis, Biological Evaluations and Molecular Docking” (Pharmaceuticals, 2024):
Read-outs that look alike come from different tables or passages of the source.

Experiments:
PANC1 cell line = assay: MTT anti-proliferative assay, PANC1; assay type: cell-based, human; settings: for IC50: MTT, 48 h exposure, mean ± S.D., 3 separate experiments
Protocol: (§1) 1. Anti-proliferative activity against HepG2 and PANC1 cancer cell lines
(§2) American Type Culture Collection (ATCC). Cells lines were maintained as monolayers in Dulbecco’s Modified Eagle’s Medium (DMEM) supplemented with 10% FBS, 2 mM L-glutamine, 100 U/ml penicillin and 100µg/ml streptomycin sulfate. Cells were sub-cultured with trypsine /EDTA solution, counted with haemocytometer and plated onto 96-well plates (5000 cells/well) and left overnight to form a semi-confluent monolayer. Cell monolayers were treated in quadrates with vehicle (DMSO, 0.1% v/v), and test samples […]
end of exposure, MTT solution in PBS (5 mg/ml) was then added to all well including no cell blank and left to incubate for 90 min. The formation of formazan crystals were visually confirmed using phase contract microscopy. DMSO (100 µl/well) was added to dissolve the formazan crystals with shaking for 10 min after which the absorbance was read at 590 nm against no cell blanks on a FLuo Star Optima microplate reader (BMG technologies, Germany). Cell proliferation was calculated comparing the OD values of the DMSO control wells and those of the samples represented as % proliferation to the control. Dose-response experiment was performed on samples producing > or =50% loss of cell […]
(§3) vehicle control) were calculated using non-linear regression curve fitting of the dose response plots on GraphPad Prism V.6.0 software.

HepG2 cell line = assay: MTT anti-proliferative assay, HepG2; assay type: cell-based, human; settings: mean ± S.D., 3 separate experiments
Protocol: as §1, §2
end of exposure, MTT solution in PBS (5 mg/ml) was then added to all well including no cell blank and left to incubate for 90 min. The formation of formazan crystals were visually confirmed using phase contract microscopy. DMSO (100 µl/well) was added to dissolve the formazan crystals with shaking for 10 min after which the absorbance was read at 590 nm against no cell blanks on a FLuo Star Optima microplate reader (BMG technologies, Germany). Cell proliferation was calculated comparing the OD values of the DMSO control wells and those of the samples represented as % proliferation to the control. Dose-response experiment was performed on samples producing > or =50% loss of cell proliferation using five serial 2-fold dilutions (50, 25, 12.5, 6.25 and 3.125 µM) of the […]
as §3

[1] = Cytotoxicity against non-tumorigenic Vero cell line; assay type: cell-based; settings: African green monkey, Vero cells (non-tumorigenic), read-out: IC50 Vero (cytotoxic activity)
Vero cell line = assay: as above; assay type: cell-based; settings: read-out: IC50 Vero (cytotoxic activity)
VEGFR-2 [2] = target: T1, VEGFR-2 (Homo sapiens, UniProt P35968); assay: biochemical
Protocol: (§4) In brief, the master mixture was produced (25 μL per well) and poured into
(§5) each well. Each well received 5 μL of inhibitor solution designated as "Test Inhibitor". The "Positive Control" and "Blank" groups received 5 μL of the same solution without the
(§6) inhibitor (Inhibitor buffer). In order to prepare 3 mL of kinase buffer, 600 μL of kinase
(§7) buffer were combined with 2400 μL of water. The blank wells received 20 μL of kinase
(§8) buffer. The amount of VEGFR-2 required for the test was measured and the enzyme was
(§9) diluted to 1 ng/ μL with kinase buffer. 20 μL of diluted VEGFR-2 enzymes was added to
(§10) the wells designated as "Test Inhibitor Control” and “Positive Control” to start the reaction
(§11) and the mixtures were incubated at 30 °C for 45 minutes. After the 45 minutes, each well received 50 μL of KinaseGlo Max reagent and the plate was incubated at room temperature
(§12) for 15 minutes. The luminescence was measured with a microplate reader.

VEGFR-2 [3] = target: T1, VEGFR-2; assay: VEGFR-2 Kinase Assay Kit (BPS Bioscience)
Protocol: as §4, §5, §6, §7, §8, §9, §10, §11, §12

HepG2 = system: HepG2; set-up: method as in doi:10.1016/j.molstruc.2021.131832; settings: hepatocellular cell line HepG2; cited from earlier work
VEGFR-2 [4] = target: T1, VEGFR-2; set-up: purchased BPS Bioscience 40325; method as in doi:10.1016/j.molstruc.2021.131832; settings: cited from earlier work
VEGFR-2 [5] = target: T1, VEGFR-2; set-up: purchased BPS Bioscience 40325; method as in PMID 35217379; settings: cited from earlier work
[6] = Homo sapiens, HepG2, 48 h exposure

T1 sequence (P35968 20-1356): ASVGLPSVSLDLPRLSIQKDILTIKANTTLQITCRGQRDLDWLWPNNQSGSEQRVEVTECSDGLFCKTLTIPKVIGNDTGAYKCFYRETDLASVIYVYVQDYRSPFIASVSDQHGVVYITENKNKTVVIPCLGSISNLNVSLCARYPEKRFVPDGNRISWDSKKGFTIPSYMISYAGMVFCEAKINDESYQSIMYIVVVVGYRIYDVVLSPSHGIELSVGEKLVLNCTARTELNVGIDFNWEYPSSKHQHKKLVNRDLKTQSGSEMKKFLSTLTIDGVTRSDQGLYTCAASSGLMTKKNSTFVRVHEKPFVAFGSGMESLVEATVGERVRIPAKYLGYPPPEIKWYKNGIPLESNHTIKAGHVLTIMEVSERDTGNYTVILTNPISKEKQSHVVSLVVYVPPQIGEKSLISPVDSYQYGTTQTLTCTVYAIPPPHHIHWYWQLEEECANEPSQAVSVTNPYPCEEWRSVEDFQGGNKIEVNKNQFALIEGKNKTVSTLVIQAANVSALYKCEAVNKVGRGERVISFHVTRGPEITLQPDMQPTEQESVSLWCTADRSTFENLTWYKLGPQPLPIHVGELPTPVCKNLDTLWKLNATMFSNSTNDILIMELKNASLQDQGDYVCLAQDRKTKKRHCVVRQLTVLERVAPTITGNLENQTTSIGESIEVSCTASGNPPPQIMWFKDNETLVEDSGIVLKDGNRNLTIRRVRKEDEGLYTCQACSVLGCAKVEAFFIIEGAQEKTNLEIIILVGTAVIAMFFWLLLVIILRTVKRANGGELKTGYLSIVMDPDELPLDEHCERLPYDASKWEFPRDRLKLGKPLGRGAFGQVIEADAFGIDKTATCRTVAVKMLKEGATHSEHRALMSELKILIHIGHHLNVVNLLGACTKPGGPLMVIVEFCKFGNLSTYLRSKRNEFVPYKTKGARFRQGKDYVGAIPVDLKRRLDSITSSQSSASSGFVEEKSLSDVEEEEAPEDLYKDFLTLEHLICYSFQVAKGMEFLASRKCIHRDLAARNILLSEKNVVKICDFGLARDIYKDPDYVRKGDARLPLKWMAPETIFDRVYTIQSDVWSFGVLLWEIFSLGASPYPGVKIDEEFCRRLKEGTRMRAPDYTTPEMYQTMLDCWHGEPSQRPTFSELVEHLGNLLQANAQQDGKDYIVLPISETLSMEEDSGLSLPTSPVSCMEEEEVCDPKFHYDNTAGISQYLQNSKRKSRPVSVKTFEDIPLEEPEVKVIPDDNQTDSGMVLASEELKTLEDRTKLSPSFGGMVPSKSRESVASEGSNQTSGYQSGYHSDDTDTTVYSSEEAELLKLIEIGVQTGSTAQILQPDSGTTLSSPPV

SMILES | IC50 (PANC1 cell line; Homo sapiens, PANC-1) [nM] | IC50 (HepG2 cell line; [6]) [nM] | also measured
CC(=O)Nc1ccc(-c2nc(C(=O)NN=C3C(=O)Nc4ccccc43)nn2-c2ccc(F)cc2)cc1 [11a, N-{4-[1-(4-Fluorophenyl)-3-{N′-[2-oxo-2,3-dihydro-1H-indol-3-ylidene]hydrazinecarbonyl}-1H-1,2,4-triazol-5-yl]phenyl}acetamide] | 4290 ± 100 | 2060 ± 30 | 
CC(=O)Nc1ccc(-c2nc(C(=O)NN=C3C(=O)Nc4ccc(F)cc43)nn2-c2ccc(F)cc2)cc1 [11b, N-[4-(3-{N′-[5-Fluoro-2-oxo-2,3-dihydro-1H-indol-3-ylidene]hydrazinecarbonyl}-1-(4-fluorophenyl)-1H-1,2,4-triazol-5-yl)phenyl]acetamide] | 1740 ± 20 | 1170 ± 30 | 
CC(=O)Nc1ccc(-c2nc(C(=O)NN=C3C(=O)Nc4ccc(Cl)cc43)nn2-c2ccc(F)cc2)cc1 [11c, N-[4-(3-{N′-[5-Chloro-2-oxo-2,3-dihydro-1H-indol-3-ylidene]hydrazinecarbonyl}-1-(4-fluorophenyl)-1H-1,2,4-triazol-5-yl)phenyl]acetamide] | 980 ± 60 | 2210 ± 30 | 
CC(=O)Nc1ccc(-c2nc(C(=O)NN=C3C(=O)Nc4ccc(Br)cc43)nn2-c2ccc(F)cc2)cc1 [11d, N-[4-(3-{N′-[5-Bromo-2-oxo-2,3-dihydro-1H-indol-3-ylidene]hydrazinecarbonyl}-1-(4-fluorophenyl)-1H-1,2,4-triazol-5-yl)phenyl]acetamide] | 1160 ± 20 | 730 ± 20 | IC50 [1]: 11700 ± 930 nM; IC50 (Vero cell line): 8350 ± 620 nM; IC50 (VEGFR-2 [2]): 16.3 ± 0.42 nM; fold enhancement of efficacy against VEGFR-2 compared to 11e (VEGFR-2 [3]; 5-Br versus 5-OCH3 (11e)): approximately 3 fold
COc1ccc2c(c1)C(=NNC(=O)c1nc(-c3ccc(NC(C)=O)cc3)n(-c3ccc(F)cc3)n1)C(=O)N2 [11e, N-{4-[1-(4-Fluorophenyl)-3-{N′-[5-methoxy-2-oxo-2,3-dihydro-1H-indol-3-ylidene]hydrazinecarbonyl}-1H-1,2,4-triazol-5-yl]phenyl}acetamide] | 2220 ± 70 | 760 ± 20 | IC50 [1]: 8350 ± 620 nM; IC50 (Vero cell line): 11700 ± 930 nM; IC50 (VEGFR-2 [2]): 48.4 ± 0.39 nM
CC(=O)Nc1ccc(-c2nc(C(=O)NN=C3C(=O)Nc4ccc([N+](=O)[O-])cc43)nn2-c2ccc(F)cc2)cc1 [11f, N-{4-[1-(4-Fluorophenyl)-3-{N′-[5-nitro-2-oxo-2,3-dihydro-1H-indol-3-ylidene]hydrazinecarbonyl}-1H-1,2,4-triazol-5-yl]phenyl}acetamide] | 230 ± 10 | 2410 ± 40 | 
CC(=O)Nc1ccc(-c2nc(C(=O)NN=C3C(=O)Nc4ccccc43)nn2-c2ccc(Cl)cc2)cc1 [11g, N-{4-[1-(4-Chlorophenyl)-3-{N′-[2-oxo-2,3-dihydro-1H-indol-3-ylidene]hydrazinecarbonyl}-1H-1,2,4-triazol-5-yl]phenyl}acetamide] | 770 ± 20 | 710 ± 10 | IC50 [1]: 10600 ± 710 nM
CC(=O)Nc1ccc(-c2nc(C(=O)NN=C3C(=O)Nc4ccc(F)cc43)nn2-c2ccc(Cl)cc2)cc1 [11h, N-{4-[1-(4-Chlorophenyl)-3-{N′-[5-fluoro-2-oxo-2,3-dihydro-1H-indol-3-ylidene]hydrazinecarbonyl}-1H-1,2,4-triazol-5-yl]phenyl}acetamide] | 220 ± 10 | 1270 ± 40 | fold improvement of efficacy against PANC1 compared to 11b (PANC1 cell line; versus fluorinated-phenyl counterpart 11b): 8 fold; melting point: > 300 °C
CC(=O)Nc1ccc(-c2nc(C(=O)NN=C3C(=O)Nc4ccc(Cl)cc43)nn2-c2ccc(Cl)cc2)cc1 [11i, N-[4-(3-{N′-[5-Chloro-2-oxo-2,3-dihydro-1H-indol-3-ylidene]hydrazinecarbonyl}-1-(4-chlorophenyl)-1H-1,2,4-triazol-5-yl)phenyl]acetamide] | 3750 ± 90 | 4490 ± 150 | 
CC(=O)Nc1ccc(-c2nc(C(=O)NN=C3C(=O)Nc4ccc(Br)cc43)nn2-c2ccc(Cl)cc2)cc1 [11j, N-[4-(3-{N′-[5-Bromo-2-oxo-2,3-dihydro-1H-indol-3-ylidene]hydrazinecarbonyl}-1-(4-chlorophenyl)-1H-1,2,4-triazol-5-yl)phenyl]acetamide] | 1680 ± 60 | 1010 ± 20 | 
COc1ccc2c(c1)C(=NNC(=O)c1nc(-c3ccc(NC(C)=O)cc3)n(-c3ccc(Cl)cc3)n1)C(=O)N2 [11k, N-{4-[1-(4-Chlorophenyl)-3-{N′-[5-methoxy-2-oxo-2,3-dihydro-1H-indol-3-ylidene]hydrazinecarbonyl}-1H-1,2,4-triazol-5-yl]phenyl}acetamide] | 1780 ± 40 | 730 ± 10 | IC50 [1]: 13200 ± 1090 nM; IC50 (VEGFR-2 [2]): 41.3 ± 0.31 nM; times increase of VEGFR-2 activity compared to 11g (VEGFR-2 [3]; versus unsubstituted indolin-2-one 11g): approximately 3 times
CC(=O)Nc1ccc(-c2nc(C(=O)NN=C3C(=O)Nc4ccc([N+](=O)[O-])cc43)nn2-c2ccc(Cl)cc2)cc1 [11l, N-{4-[1-(4-Chlorophenyl)-3-{N′-[5-nitro-2-oxo-2,3-dihydro-1H-indol-3-ylidene]hydrazinecarbonyl}-1H-1,2,4-triazol-5-yl]phenyl}acetamide] | 170 ± 10 | 1730 ± 60 | 
CC(=O)Nc1ccc(-c2nc(C(=O)NN=C3C(=O)N(C)c4ccccc43)nn2-c2ccc(F)cc2)cc1 [14a, N-{4-[1-(4-Fluorophenyl)-3-{N′-[1-methyl-2-oxo-2,3-dihydro-1H-indol-3-ylidene]hydrazinecarbonyl}-1H-1,2,4-triazol-5-yl]phenyl}acetamide] | 4050 ± 100 | 1630 ± 20 | 
CC(=O)Nc1ccc(-c2nc(C(=O)NN=C3C(=O)N(Cc4ccccc4)c4ccc(Br)cc43)nn2-c2ccc(F)cc2)cc1 [14b, N-[4-(3-{N′-[1-Benzyl-5-bromo-2-oxo-2,3-dihydro-1H-indol-3-ylidene]hydrazinecarbonyl}-1-(4-fluorophenyl)-1H-1,2,4-triazol-5-yl)phenyl]acetamide] | 760 ± 40 | 980 | 
CC(=O)Nc1ccc(-c2nc(C(=O)NN=C3C(=O)N(C)c4ccccc43)nn2-c2ccc(Cl)cc2)cc1 [14c, N-{4-[1-(4-Chlorophenyl)-3-{N′-[1-methyl-2-oxo-2,3-dihydro-1H-indol-3-ylidene]hydrazinecarbonyl}-1H-1,2,4-triazol-5-yl]phenyl}acetamide] | 200 | 580 ± 10 | IC50 [1]: 7920 ± 480 nM
CC(=O)Nc1ccc(-c2nc(C(=O)NN=C3C(=O)N(Cc4ccccc4)c4ccc(Br)cc43)nn2-c2ccc(Cl)cc2)cc1 [14d, N-[4-(3-{N′-[1-Benzyl-5-bromo-2-oxo-2,3-dihydro-1H-indol-3-ylidene]hydrazinecarbonyl}-1-(4-chlorophenyl)-1H-1,2,4-triazol-5-yl)phenyl]acetamide] | 420 ± 10 | 920 ± 20 | 
COc1cccc2c1C(=O)c1c(O)c3c(c(O)c1C2=O)C[C@@](O)(C(=O)CO)C[C@@H]3O[C@H]1C[C@H](N)[C@H](O)[C@H](C)O1 [Dox., reference compound] |  |  | IC50 (PANC1 cell line): 190 ± 10 nM; IC50 (HepG2 cell line; 48 h exposure): 430 ± 20 nM
CCOC(=O)/C(=N\Nc1ccc(Cl)cc1)Sc1nnc(C(F)(F)F)n1/N=C/c1ccc(OC)cc1 [II] |  |  | IC50 (HepG2): 10000 nM; IC50 (VEGFR-2 [4]): 74 nM
Cc1ccc(NC(=O)CSc2nnc(Cn3c(=O)c(C)nc4ccccc43)n2C)cc1 [I] |  |  | IC50 (VEGFR-2 [5]): 60 nM
